# Reference: PubChem BioAssay AID1963841 (Molecular Pharmacology Branch, DTP, NCI, 2024)
# System: 439559-082-T-J2-PDC spheroid viability
# Test: Anticancer human tumor 439559-082-T-J2-PDC patient-derived colon adenocarcinoma cell line growth inhibition [POLQ]
# Conditions: spheroids with HUVEC and MSC; for IC50: curve of first compound; for viability, T/C: stronger effect = lower value
# Outline: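 Three-cell-type spheroids modelling solid tumor plus stroma served as the readout system; POL inhibitors were tested individually and in combination, concentration ranges set by clinical Cmax where known.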
# [1] = second compound 0.0316 µM, first compound 0.0316 µM
# [2] = second compound 0.0316 µM, first compound 0.1 µM
# [3] = second compound 0.0316 µM, first compound 0.316 µM
# [4] = second compound 0.0316 µM, first compound 1 µM
# [5] = second compound 0.0316 µM, first compound 3.16 µM
# [6] = second compound 0.0316 µM, first compound 10 µM
# [7] = second compound 0.1 µM, first compound 0.0316 µM
# [8] = second compound 0.1 µM, first compound 0.1 µM
# [9] = second compound 0.1 µM, first compound 0.316 µM
# [10] = second compound 0.1 µM, first compound 1 µM
# [11] = second compound 0.1 µM, first compound 3.16 µM
# [12] = second compound 0.1 µM, first compound 10 µM
# [13] = second compound 0.316 µM, first compound 0.0316 µM
# [14] = second compound 0.316 µM, first compound 0.1 µM
# [15] = second compound 0.316 µM, first compound 0.316 µM
# [16] = second compound 0.316 µM, first compound 1 µM
# [17] = second compound 0.316 µM, first compound 3.16 µM
# [18] = second compound 0.316 µM, first compound 10 µM
# [19] = second compound 1 µM, first compound 0.0316 µM
# [20] = second compound 1 µM, first compound 0.1 µM
# [21] = second compound 1 µM, first compound 0.316 µM
# [22] = second compound 1 µM, first compound 1 µM
# [23] = second compound 1 µM, first compound 3.16 µM
# [24] = second compound 1 µM, first compound 10 µM
# [25] = second compound 3.16 µM, first compound 0.0316 µM
# [26] = second compound 3.16 µM, first compound 0.1 µM
# [27] = second compound 3.16 µM, first compound 0.316 µM
# [28] = second compound 3.16 µM, first compound 1 µM
# [29] = second compound 3.16 µM, first compound 3.16 µM
# [30] = second compound 3.16 µM, first compound 10 µM
# [31] = second compound 10 µM, first compound 0.0316 µM
# [32] = second compound 10 µM, first compound 0.1 µM
# [33] = second compound 10 µM, first compound 0.316 µM
# [34] = second compound 10 µM, first compound 1 µM
# [35] = second compound 10 µM, first compound 3.16 µM
# [36] = second compound 10 µM, first compound 10 µM
# 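Note: spheroids exposed to compounds for seven days before readout.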
# 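Throughout, for viability, T/C: 100% = DMSO vehicle control viability.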
smiles,measurement,setting,value
CCc1cc2c(N3CCc4c(cc(Cn5ccnc5)cc4-c4cn(C)nc4C(F)(F)F)C3=O)ccnc2c(OC)n1 + Cc1cccc(N(C)C(=O)C2C(O)CCN2c2nc(C)cc(C(F)(F)F)c2C#N)c1,IC50,second compound 0.0316 µM,> 10 µM
same,IC50,second compound 0.1 µM,> 10 µM
same,IC50,second compound 0.316 µM,> 10 µM
same,IC50,second compound 1 µM,> 10 µM
same,IC50,second compound 3.16 µM,> 10 µM
same,IC50,second compound 10 µM,> 10 µM
same,"viability, T/C",[1],98%
same,"viability, T/C",[2],95.5%
same,"viability, T/C",[3],101%
same,"viability, T/C",[4],97.1%
same,"viability, T/C",[5],93.1%
same,"viability, T/C",[6],87%
same,"viability, T/C",[7],126%
same,"viability, T/C",[8],96.4%
same,"viability, T/C",[9],90.6%
same,"viability, T/C",[10],92.5%
same,"viability, T/C",[11],95.2%
same,"viability, T/C",[12],89.4%
same,"viability, T/C",[13],105%
same,"viability, T/C",[14],109%
same,"viability, T/C",[15],102%
same,"viability, T/C",[16],98%
same,"viability, T/C",[17],98.8%
same,"viability, T/C",[18],83.7%
same,"viability, T/C",[19],101%
same,"viability, T/C",[20],104%
same,"viability, T/C",[21],85.1%
same,"viability, T/C",[22],93.7%
same,"viability, T/C",[23],93%
same,"viability, T/C",[24],90.2%
same,"viability, T/C",[25],115%
same,"viability, T/C",[26],106%
same,"viability, T/C",[27],83.3%
same,"viability, T/C",[28],92.2%
same,"viability, T/C",[29],103%
same,"viability, T/C",[30],96.1%
same,"viability, T/C",[31],94.9%
same,"viability, T/C",[32],87%
same,"viability, T/C",[33],99.5%
same,"viability, T/C",[34],89.3%
same,"viability, T/C",[35],91.7%
same,"viability, T/C",[36],77.3%
C=CCn1c(=O)c2cnc(Nc3ccc(N4CCN(C)CC4)cc3)nc2n1-c1cccc(C(C)(C)O)n1 + Cc1cccc(N(C)C(=O)C2C(O)CCN2c2nc(C)cc(C(F)(F)F)c2C#N)c1,IC50,second compound 0.0316 µM,> 1 µM
same,IC50,second compound 0.1 µM,> 1 µM
same,IC50,second compound 0.316 µM,> 1 µM
same,IC50,second compound 1 µM,> 1 µM
same,IC50,second compound 3.16 µM,> 1 µM
same,IC50,second compound 10 µM,> 1 µM
same,"viability, T/C","second compound 0.0316 µM, first compound 0.00316 µM",104%
same,"viability, T/C","second compound 0.0316 µM, first compound 0.01 µM",96.8%
same,"viability, T/C",[1],93.3%
same,"viability, T/C",[2],92.1%
same,"viability, T/C",[3],83.7%
same,"viability, T/C",[4],78.9%
same,"viability, T/C","second compound 0.1 µM, first compound 0.00316 µM",98%
same,"viability, T/C","second compound 0.1 µM, first compound 0.01 µM",103%
same,"viability, T/C",[7],107%
same,"viability, T/C",[8],88.3%
same,"viability, T/C",[9],93.1%
same,"viability, T/C",[10],84.1%
same,"viability, T/C","second compound 0.316 µM, first compound 0.00316 µM",104%
same,"viability, T/C","second compound 0.316 µM, first compound 0.01 µM",104%
same,"viability, T/C",[13],85.8%
same,"viability, T/C",[14],95.3%
same,"viability, T/C",[15],100%
same,"viability, T/C",[16],71%
same,"viability, T/C","second compound 1 µM, first compound 0.00316 µM",86.3%
same,"viability, T/C","second compound 1 µM, first compound 0.01 µM",99.8%
same,"viability, T/C",[19],102%
same,"viability, T/C",[20],102%
same,"viability, T/C",[21],93.4%
same,"viability, T/C",[22],75.3%
same,"viability, T/C","second compound 3.16 µM, first compound 0.00316 µM",94.6%
same,"viability, T/C","second compound 3.16 µM, first compound 0.01 µM",105%
same,"viability, T/C",[25],91.7%
same,"viability, T/C",[26],95.4%
same,"viability, T/C",[27],96.5%
same,"viability, T/C",[28],76.8%
same,"viability, T/C","second compound 10 µM, first compound 0.00316 µM",100%
same,"viability, T/C","second compound 10 µM, first compound 0.01 µM",90.6%
same,"viability, T/C",[31],99.3%
same,"viability, T/C",[32],97.8%
same,"viability, T/C",[33],93.5%
same,"viability, T/C",[34],74.3%
CCc1cc2c(N3CCc4c(cc(Cn5ccnc5)cc4-c4cn(C)nc4C(F)(F)F)C3=O)ccnc2c(OC)n1 + Nc1ccc(C#CCN(C(=O)Cc2ncc(C(F)(F)F)cc2C(F)(F)F)c2ccc(F)cc2)nn1,IC50,second compound 0.0316 µM,> 10 µM
same,IC50,second compound 0.1 µM,> 10 µM
same,IC50,second compound 0.316 µM,> 10 µM
same,IC50,second compound 1 µM,> 10 µM
same,IC50,second compound 3.16 µM,> 10 µM
same,IC50,second compound 10 µM,> 10 µM
same,"viability, T/C",[1],98%
same,"viability, T/C",[2],94.8%
same,"viability, T/C",[3],93.3%
same,"viability, T/C",[4],89.9%
same,"viability, T/C",[5],83%
same,"viability, T/C",[6],84%
same,"viability, T/C",[7],90.6%
same,"viability, T/C",[8],101%
same,"viability, T/C",[9],86%
same,"viability, T/C",[10],86.2%
same,"viability, T/C",[11],96.5%
same,"viability, T/C",[12],95.6%
same,"viability, T/C",[13],102%
same,"viability, T/C",[14],105%
same,"viability, T/C",[15],86.5%
same,"viability, T/C",[16],97.2%
same,"viability, T/C",[17],93.7%
same,"viability, T/C",[18],86.9%
same,"viability, T/C",[19],88.7%
same,"viability, T/C",[20],95.8%
same,"viability, T/C",[21],86.5%
same,"viability, T/C",[22],88.5%
same,"viability, T/C",[23],95.1%
same,"viability, T/C",[24],80.5%
same,"viability, T/C",[25],104%
same,"viability, T/C",[26],102%
same,"viability, T/C",[27],95%
same,"viability, T/C",[28],82.7%
same,"viability, T/C",[29],88.8%
same,"viability, T/C",[30],78.7%
same,"viability, T/C",[31],98.9%
same,"viability, T/C",[32],91.8%
same,"viability, T/C",[33],92.2%
same,"viability, T/C",[34],93.9%
same,"viability, T/C",[35],91.7%
same,"viability, T/C",[36],84.7%
